What was measured:
Assay type in all cases: in vivo
Phytophthora infestans = assay: whole plant or invertebrate; details: in Solanum lycopersicum, read-out: Test F control value
[1] = tested on: Blumeria graminis f. sp. hordei; assay: Test Example D: Powdery mildew on barley; details: Powdery mildew on barley, read-out: Test D control value
Magnaporthe grisea = assay: whole plant or invertebrate; details: Pyricularia oryzae, in Oryza sativa, read-out: Test A control value
Plasmopara viticola = assay: Test Example G: Downy mildew on vine; details: Downy mildew on vine, 250 ppm sprayed, 2.5 ml/pot, 7 to 10 days after inoculation, read-out: Test G control value
Alternaia brassicicola = assay: Test Example C: Alternaria sooty spot on cabbage; details: Brassica oleracea; Alternaria sooty spot on cabbage; read-out: Test C control value
Puccinia recondita = assay: Test Example E: Brown rust on wheat; details: Brown rust on wheat, read-out: Test E control value
Botrytis cinerea = assay: Test Example B: Gray mold on tomato; details: Gray mold on tomato, read-out: Test B control value

CCN1C(=O)CCC(c2cccs2)=C1c1c(F)cccc1F [compound 2, 6-(2,6-difluorophenyl)-1-ethyl-5-(thiophen-2-yl)-3,4-dihydropyridin-2(1H)-one]
> 50%: pest or weed control at 250 µg/mL [1] | pest or weed control at 250 µg/mL (Magnaporthe grisea) | pest or weed control at 250 ppm (Plasmopara viticola) | pest or weed control at 250 µg/mL (Puccinia recondita)
< 50%: pest or weed control at 250 µg/mL (Phytophthora infestans) | pest or weed control at 250 µg/mL (Alternaia brassicicola) | pest or weed control at 250 µg/mL (Botrytis cinerea)

CCn1c(-c2c(F)cccc2F)c(-c2cccs2)ccc1=O [compound 5, 6-(2,6-difluorophenyl)-1-ethyl-5-(thiophen-2-yl)pyridin-2(1H)-one]
> 50%: pest or weed control at 250 µg/mL (Phytophthora infestans) | pest or weed control at 250 µg/mL [1] | pest or weed control at 250 µg/mL (Magnaporthe grisea) | pest or weed control at 250 ppm (Plasmopara viticola) | pest or weed control at 250 µg/mL (Alternaia brassicicola) | pest or weed control at 250 µg/mL (Puccinia recondita) | pest or weed control at 250 µg/mL (Botrytis cinerea)

CCn1c(-c2c(F)cccc2F)c(-c2ccc(Cl)s2)ccc1=O [compound 6, 5-(5-chlorothiophen-2-yl)-6-(2,6-difluorophenyl)-1-ethylpyridin-2(1H)-one]
> 50%: pest or weed control at 250 µg/mL (Magnaporthe grisea) | pest or weed control at 250 µg/mL (Alternaia brassicicola) | pest or weed control at 250 µg/mL (Puccinia recondita) | pest or weed control at 250 µg/mL (Botrytis cinerea)
< 50%: pest or weed control at 250 µg/mL (Phytophthora infestans) | pest or weed control at 250 µg/mL [1] | pest or weed control at 250 ppm (Plasmopara viticola)

CCn1c(-c2c(F)cccc2F)c(-c2ccc(Cl)s2)cc(Cl)c1=O [compound 7, 3-chloro-5-(5-chlorothiophen-2-yl)-6-(2,6-difluorophenyl)-1-ethylpyridin-2(1H)-one]
< 50%: pest or weed control at 250 µg/mL (Phytophthora infestans) | pest or weed control at 250 µg/mL [1] | pest or weed control at 250 ppm (Plasmopara viticola)
> 50%: pest or weed control at 250 µg/mL (Magnaporthe grisea) | pest or weed control at 250 µg/mL (Alternaia brassicicola) | pest or weed control at 250 µg/mL (Puccinia recondita) | pest or weed control at 250 µg/mL (Botrytis cinerea)

CCn1c(-c2c(F)cc(F)cc2F)c(C2OCCCO2)cc(Cl)c1=O [compound 8, 3-chloro-5-(1,3-dioxan-2-yl)-1-ethyl-6-(2,4,6-trifluorophenyl)-pyridin-2(1H)-one]
> 50%: pest or weed control at 250 µg/mL (Magnaporthe grisea) | pest or weed control at 250 ppm (Plasmopara viticola) | pest or weed control at 250 µg/mL (Alternaia brassicicola) | pest or weed control at 250 µg/mL (Botrytis cinerea)
< 50%: pest or weed control at 250 µg/mL (Phytophthora infestans) | pest or weed control at 250 µg/mL [1] | pest or weed control at 250 µg/mL (Puccinia recondita)

CCn1c(-c2c(F)cccc2F)c(-c2cccnc2Cl)ccc1=O [compound 17]
> 50%: pest or weed control at 250 µg/mL [1] | pest or weed control at 250 µg/mL (Puccinia recondita) | pest or weed control at 250 µg/mL (Botrytis cinerea)

CCn1c(-c2c(F)cccc2F)c(-c2cccnc2Cl)cc(Cl)c1=O [compound 18]
> 50%: pest or weed control at 250 µg/mL [1] | pest or weed control at 250 µg/mL (Magnaporthe grisea) | pest or weed control at 250 µg/mL (Alternaia brassicicola) | pest or weed control at 250 µg/mL (Puccinia recondita) | pest or weed control at 250 µg/mL (Botrytis cinerea)
< 50%: pest or weed control at 250 µg/mL (Phytophthora infestans) | pest or weed control at 250 ppm (Plasmopara viticola)

CCn1c(-c2c(F)cc(F)cc2F)c(-c2ccnn2C)cc(Cl)c1=O [compound 20, 3-chloro-1-ethyl-5-(1-methyl-1H-pyrazol-5-yl)-6-(2,4,6-trifluorophenyl)pyridin-2(1H)-one]
< 50%: pest or weed control at 250 µg/mL (Phytophthora infestans) | pest or weed control at 250 ppm (Plasmopara viticola)
> 50%: pest or weed control at 250 µg/mL [1] | pest or weed control at 250 µg/mL (Magnaporthe grisea) | pest or weed control at 250 µg/mL (Alternaia brassicicola) | pest or weed control at 250 µg/mL (Puccinia recondita) | pest or weed control at 250 µg/mL (Botrytis cinerea)

CCn1c(-c2c(F)cc(F)cc2F)c(-c2c(Br)cnn2C)cc(Cl)c1=O [compound 21, 5-(4-bromo-1-methyl-1H-pyrazol-5-yl)-3-chloro-1-ethyl-6-(2,4,6-trifluorophenyl)pyridin-2(1H)-one]
< 50%: pest or weed control at 250 µg/mL (Phytophthora infestans)
> 50%: pest or weed control at 250 µg/mL [1] | pest or weed control at 250 µg/mL (Magnaporthe grisea) | pest or weed control at 250 ppm (Plasmopara viticola) | pest or weed control at 250 µg/mL (Alternaia brassicicola) | pest or weed control at 250 µg/mL (Puccinia recondita) | pest or weed control at 250 µg/mL (Botrytis cinerea)

CCn1c(-c2c(F)cc(OC)cc2F)c(-c2c(Br)cnn2C)cc(Cl)c1=O [compound 23, 5-(4-bromo-1-methyl-1H-pyrazol-5-yl)-3-chloro-6-(2,6-difluoro-4-methoxyphenyl)-1-ethylpyridin-2(1H)-one]
> 50%: pest or weed control at 250 µg/mL [1] | pest or weed control at 250 µg/mL (Magnaporthe grisea) | pest or weed control at 250 µg/mL (Alternaia brassicicola) | pest or weed control at 250 µg/mL (Puccinia recondita) | pest or weed control at 250 µg/mL (Botrytis cinerea)
< 50%: pest or weed control at 250 µg/mL (Phytophthora infestans) | pest or weed control at 250 ppm (Plasmopara viticola)

From patent US11178870B2 (priority 2017, dated 2021)
